Laboratory results published in patent publication US11464771B2, “Bromodomain and extra-terminal protein inhibitor combination therapy” (CELGENE QUANTICEL RESEARCH, INC., priority 2016, dated 2022).

Experiments:
[1] = non-leukemic hematologic malignancies; cited from earlier work
[2] = test system: PA0165 pancreatic xenograft; test: Pancreatic xenograft PA0165, Compound A and Romidepsin; assay type: in vivo, NSG mice
Procedure: 3/4 is 3 days on and 4 days off; Q4D is once every 4 days; Q7D is once every 7 days; —— Control; - - - - Compound A 25 mg/kg, 3/4; - —— - —— Romidepsin 1.5 mg/kg Q4D×3; —— —— Compound A 25 mg/kg. 3/4 combined with Romidepsin 1.5 mg/kg Q7D; - - - Compound A 25 mg/kg, 3/4 combined with Romidepsin 0.75 mg/kg Q7D. Tumor volumes were plotted as mean±standard error of the mean (SEM).
3/4 is 3 days on and 4 days off; Q4D is once every 4 days. —— Control; - - - - Compound A at 25 mg/kg, 3/4; - —— - —— Romidepsin 1.5 mg/kg Q4D×3; —— —— Compound A 25 mg/kg, 3/4 combined with Romidepsin 1.5 mg/kg Q7D; - - - Compound A 25 mg/kg, 3/4 combined with Romidepsin 0.75 mg/kg Q7D.
Cohorts of 4-6 wk-old NSG mice bearing PA0165 were treated with Romidepsin at 1.5 mg/kg intravenous (IV)×3 Q4D; Compound A 25 mg/kg orally QD 3 days on then 4 days off; or with a combination of Compound A 25 mg/kg orally QD 3 days on then 4 days off and Romidepsin at 1.5 or 0.75 mg/kg IV Q7D. The treatment lasted 21 days.

basal cell carcinoma = conditions: BCC; cited from earlier work
locally advanced BCC = conditions: cited from earlier work

Cc1sc2c(c1C)C(c1ccc(Cl)cc1)=N[C@@H](CC(=O)Nc1ccc(O)cc1)c1nnc(C)n1-2 [OTX015]
patients with Grade 3 hyperglycemia [1]: 1 patient

C/C=C1\NC(=O)[C@H]2CSSCC/C=C/[C@H](CC(=O)N[C@H](C(C)C)C(=O)N2)OC(=O)[C@H](C(C)C)NC1=O [Romidepsin, (1S,4S,7Z,10S,16E,21R)-7-ethylidene4,21-diisopropyl-2-oxa-12,13-dithia-5,8,20,23-tetrazabicyclo[8.7.6]tricos-16-ene-3,6,9,19,22pentone, reference compound]
TGI ([2]; Romidepsin 1.5 mg/kg IV ×3 Q4D alone, 21 days): 45%
survival rate ([2]; day 30, Romidepsin only group): about 10%

CS(=O)(=O)c1ccc(C(=O)Nc2ccc(Cl)c(-c3ccccn3)c2)c(Cl)c1 [vismodegib]
median duration of response (basal cell carcinoma): 7.6 months

Cc1c(C(=O)Nc2ccc(N3C[C@@H](C)O[C@@H](C)C3)nc2)cccc1-c1ccc(OC(F)(F)F)cc1 [sonidegib]
investigator-assessed responses lasting at least six months (locally advanced BCC): 60%
